Results: patent US20170333390A1, “PHYTOCHEMICAL COMPOSITIONS INCLUDING SESAMIN FOR ANTI-INFLAMMATORY, ANTI-CYTOKINE STORM, AND OTHER USES” (CHIANG MAI UNIVERSITY, priority 2009, published 2017)

Key:
[1] = system: IL-2 gene expression in LPS induced peripheral blood mononuclear cells (PBMCs); assay: IL-2 gene expression relative to GAPDH in LPS induced PBMCs (RT-PCR); format: cell-based; conditions: 1.0 ug/ml sesamin (culture 4), LPS 20 ng/ml, 24 hours
Description: Experiments were conducted to evaluate the effect of particular phytochemical compositions provided by the present disclosure on IL-2 gene expression in specified cells found within a body of a living organism. Cells used for the experiment described in this example are LPS induced peripheral blood mononuclear cells (PBMCs). It is understood by a person having ordinary skill in the art that the PBMCs may be substituted for other immune cells found within the body. It is also understood by a person having ordinary skill in the art that other inducing substances or chemicals besides LPS, for example viral antigens, may also be used for inducing the PBMCs.
Preparation of PBMCs is done by standard isolation techniques or methods known to a person of ordinary skill in the art as with the experiments of example two. In addition, LPS can be obtained from a commercial source, for example Sigma-Aldrich Co. The PBMCs are cultured in 10% fetal calf serum in RPMI1640 medium. Five cultures of PBMCs, i.e. culture 1 to culture 5, were prepared. […]
The amount or level of IL-2 gene expression in the PBMCs was measured or determined using methods or techniques known to a person having ordinary skill in the relevant art. In example three, Real-Time PCR (RT-PCR) was used for quantifying the amount of IL-2 gene expression in the PBMCs.

[2] = system: influenza A (H1N1) virus-infected egg cells; assay: Quantity of IL-1 released by influenza A (H1N1) virus-infected egg cells; format: cell-based; conditions: for quantity of IL-1 released: 24 hours, FIG. 5; for percentage of quantity of human IL-1 released relative to quantity of isolated egg cells (diluted 1:50): uninfected culture 1 = 100%, FIG. 6
Description: Experiments were conducted to evaluate the effects of particular phytochemical compositions provided by the present disclosure on quantity of IL-1 released by virus-infected cells. Virus-infected cells used for the experiments described in this example are influenza A (H1N1) virus-infected cells. More specifically, the virus-infected cells used for the experiments described in this example are influenza A (H1N1) virus-infected egg cells. The influenza A (H1N1) virus can be isolated from patients infected with the influenza A (H1N1) using standard techniques known to a person of ordinary skill in the art. In addition, isolation of cells (e.g., egg cells), and the infection of cells (e.g., isolated egg cells) can be performed using standard techniques or method known to a person of ordinary skill in the art. It is understood by a person having ordinary skill in the art that the influenza A (H1N1) virus-infected egg cells may be substituted for other viral-infected cells, or other cells found within the body, for instance, cells that that are involved in inflammatory responses within the body.
Six cultures of cells, i.e., culture 1 to culture 6, were prepared. The contents of each of cultures 1 to culture 6 are as follows: • (i) Culture 1: Control culture 1. Includes a predetermined volume of a sample of isolated egg cells that has been diluted in a ratio of 1:50; • (ii) Culture 2: Control culture 2. Includes the predetermined volume of the sample of isolated egg cells similar to that of culture 1 that have been infected with the influenza A (H1N1) virus diluted at a ratio of 1:7812500; • (iii) Culture 3: Control culture 3. Includes the predetermined volume of the sample of isolated egg cells similar to that of culture 1 and a volume of DMSO that has been infected with the influenza A (H1N1) virus diluted at a ratio of 1:7812500; • (iv) Culture 4: Includes the predetermined volume of the sample of isolated egg cells that have been infected with the influenza A (H1N1) virus similar to that of culture 2, and a volume of phytochemical composition providing sesamin at a concentration of 0.5 ug/ml; • (v) Culture 5: Includes the predetermined volume of the sample of isolated egg cells that have been infected with the influenza A (H1N1) virus similar to that of culture 2, and a volume of phytochemical composition providing sesamin at a concentration of 1.0 ug/ml; and • (vi) Culture 6: Includes the predetermined volume of the sample of isolated egg cells that have been infected with the influenza A (H1N1) virus similar to that of culture 2, and a volume of phytochemical composition providing sesamin at a concentration of 10.0 ug/ml.
In the experiments of example six, each of cultures 1 to 6 is made up to a final volume of approximately 200 μl in a well of a standard 96 well plate. It will be understood by a person of ordinary skill in the art that an alternative final volume (e.g., 100 μl) may also be used. The number or concentration of isolated egg cells used for each culture is approximately equal. For instance, the number of isolated egg cells used for each culture is approximately 2×10^5 (i.e., 200,000). It will be understood by a person of ordinary skill in the art that the number or concentration of isolated egg cells used for each of cultures 1 to 6 can be adjusted as required by varying the degree of dilution of the cultures (e.g., by increasing total volume of the culture by adding medium).
Each of cultures 1 to 6 was incubated at the same physical conditions for an equal length of time. More specifically, each culture was incubated at a temperature of 37° C. with 5% of carbon dioxide for 24 hours. The amount of IL-1 released from the isolated egg cells of each of cultures 1 to 6 was measured or determined using methods or techniques known to a person having ordinary skill in the relevant art.

For `c1cc2c(cc1[C@H]1OC[C@H]3[C@@H]1CO[C@@H]3c1ccc3c(c1)OCO3)OCO2` [sesamin], the “increase in IL-2 gene expression relative GAPDH” value [1] was “approximately 220%”, the “quantity of IL-1 released” value ([2]; 0.5 ug/ml sesamin (culture 4)) was “approximately 4 pg/ml” and the “percentage of quantity of human IL-1 released relative to quantity of isolated egg cells (diluted 1:50)” value ([2]; 0.5 ug/ml sesamin) was “approximately 22%”. For the same compound, the “quantity of IL-1 released” value ([2]; 1.0 ug/ml sesamin (culture 5)) was “approximately 3.5 pg/ml”, the “percentage of quantity of human IL-1 released relative to quantity of isolated egg cells (diluted 1:50)” value ([2]; 1.0 ug/ml sesamin) was “approximately 18%” and the “quantity of IL-1 released” value ([2]; 10.0 ug/ml sesamin (culture 6)) was “approximately 3 pg/ml”. The “percentage of quantity of human IL-1 released relative to quantity of isolated egg cells (diluted 1:50)” value ([2]; 10.0 ug/ml sesamin) was “approximately 16%”.
